This passage reports Ki results from ChEMBL document CHEMBL1134204, “Carbonic anhydrase inhibitors: synthesis of sulfonamides incorporating dtpa tails and of their zinc complexes with powerful topical antiglaucoma properties” (Bioorg Med Chem Lett, 2001).

One test has as its target Carbonic anhydrase 1 (Homo sapiens, UniProt P00915).
A further test concerns the target Carbonic anhydrase 4 (Homo sapiens, UniProt P22748).

A word on the Ki: it is a dissociation constant, usually derived from enzyme kinetics or from competition with a known ligand.

Sequence of Carbonic anhydrase 4 (P22748 whole entry): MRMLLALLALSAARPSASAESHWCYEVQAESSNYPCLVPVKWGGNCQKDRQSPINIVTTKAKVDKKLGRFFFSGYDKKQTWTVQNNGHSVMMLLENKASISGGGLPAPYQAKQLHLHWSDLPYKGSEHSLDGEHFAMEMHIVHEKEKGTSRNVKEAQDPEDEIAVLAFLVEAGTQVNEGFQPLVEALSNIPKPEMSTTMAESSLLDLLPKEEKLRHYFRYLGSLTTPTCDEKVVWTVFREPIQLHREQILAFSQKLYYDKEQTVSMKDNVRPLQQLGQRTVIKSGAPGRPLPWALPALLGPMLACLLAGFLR
Sequence of Carbonic anhydrase 1 (P00915 whole entry): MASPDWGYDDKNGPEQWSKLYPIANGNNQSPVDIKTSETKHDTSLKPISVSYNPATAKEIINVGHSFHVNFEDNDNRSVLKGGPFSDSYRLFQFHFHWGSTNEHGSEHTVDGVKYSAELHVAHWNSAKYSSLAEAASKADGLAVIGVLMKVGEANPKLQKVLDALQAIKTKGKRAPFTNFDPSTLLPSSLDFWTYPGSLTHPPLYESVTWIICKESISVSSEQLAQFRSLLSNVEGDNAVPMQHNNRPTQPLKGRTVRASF

In the case of `Cn1nc(S(N)(=O)=O)s/c1=N\C(=O)CN(CCN(CCN(CC(=O)O)CC(=O)/N=c1/sc(S(N)(=O)=O)nn1C)CC(=O)O)CC(=O)O` [listing 1 of 2 here], the Ki on Carbonic anhydrase 1 amounted to 54 nM; on Carbonic anhydrase 4, 9 nM.

Consider `NS(=O)(=O)c1ccc(NC(=O)CN(CCN(CCN(CC(=O)O)CC(=O)O)CC(=O)O)CC(=O)O)c(F)c1`, for which the Ki on Carbonic anhydrase 1 is 180 nM; on Carbonic anhydrase 4 it was 29 nM.

Turning to `NS(=O)(=O)c1ccc(NC(=O)CN(CCN(CCN(CC(=O)O)CC(=O)Nc2ccc(S(N)(=O)=O)cc2Br)CC(=O)O)CC(=O)O)c(Br)c1`, the Ki at Carbonic anhydrase 1 was determined as 79 nM; at Carbonic anhydrase 4, 21 nM.

In the case of `NS(=O)(=O)c1nc2ccc(OCCOC(=O)CN(CCN(CCN(CC(=O)O)CC(=O)OCCOc3ccc4nc(S(N)(=O)=O)sc4c3)CC(=O)O)CC(=O)O)cc2s1`, the inhibition constant Ki at Carbonic anhydrase 1 worked out at 16 nM; on Carbonic anhydrase 4, 4 nM.

In turn, `Nc1ccc2nc(S(N)(=O)=O)sc2c1` gave an inhibition constant Ki at Carbonic anhydrase 4 of 19 nM.

Take `NS(=O)(=O)c1ccc(NC(=O)CN(CCN(CCN(CC(=O)O)CC(=O)Nc2ccc(S(N)(=O)=O)cc2Cl)CC(=O)O)CC(=O)O)c(Cl)c1`: the inhibitory constant (Ki) was found to be 155 nM on Carbonic anhydrase 1 and 27 nM on Carbonic anhydrase 4.

As to `NCCC(=O)Nc1nnc(S(N)(=O)=O)s1`, at Carbonic anhydrase 4, the inhibitory constant (Ki) came out at 125 nM.

Consider `NS(=O)(=O)c1ccc(CCNC(=O)CN(CCN(CCN(CC(=O)O)CC(=O)NCCc2ccc(S(N)(=O)=O)cc2)CC(=O)O)CC(=O)O)cc1` [listing 1 of 2 here], for which the Ki at Carbonic anhydrase 4 came out at 16 nM.

On Carbonic anhydrase 4, `NS(=O)(=O)c1ccc(CCO)cc1` had an inhibition constant Ki of 450 nM.

Regarding `NS(=O)(=O)c1ccc(COC(=O)CN(CCN(CCN(CC(=O)O)CC(=O)O)CC(=O)O)CC(=O)O)cc1`, the Ki at Carbonic anhydrase 1 amounted to 510 nM; at Carbonic anhydrase 4, 265 nM.

On Carbonic anhydrase 4, `Nc1ccc(S(N)(=O)=O)cc1I` yielded a Ki of 125 nM.

`NS(=O)(=O)c1cc(S(N)(=O)=O)c(NC(=O)CN(CCN(CCN(CC(=O)O)CC(=O)Nc2cc(Cl)c(S(N)(=O)=O)cc2S(N)(=O)=O)CC(=O)O)CC(=O)O)cc1Cl`: the Ki at Carbonic anhydrase 1 came out at 63 nM; at Carbonic anhydrase 4, 41 nM.

Take `NS(=O)(=O)c1nc2ccc(OCCOC(=O)CN(CCN(CCN(CC(=O)O)CC(=O)O)CC(=O)O)CC(=O)O)cc2s1`: the Ki at Carbonic anhydrase 1 amounted to 30 nM; at Carbonic anhydrase 4, 5 nM.

The molecule `Nc1ccccc1S(N)(=O)=O` displayed a Ki on Carbonic anhydrase 4 of 1310 nM.

Regarding `NS(=O)(=O)c1ccc(NC(=O)CN(CCN(CCN(CC(=O)O)CC(=O)O)CC(=O)O)CC(=O)O)c(Cl)c1`, the inhibition constant Ki at Carbonic anhydrase 1 came to 200 nM; at Carbonic anhydrase 4, 32 nM.

On to `NS(=O)(=O)c1ccccc1NC(=O)CN(CCN(CCN(CC(=O)O)CC(=O)O)CC(=O)O)CC(=O)O`, for which the values for the Ki on Carbonic anhydrase 1 and on Carbonic anhydrase 4 were 8600 nM and 550 nM, respectively.

Take `NS(=O)(=O)c1nc2ccc(OC(=O)CN(CCN(CCN(CC(=O)O)CC(=O)Oc3ccc4nc(S(N)(=O)=O)sc4c3)CC(=O)O)CC(=O)O)cc2s1`: the Ki came to 21 nM at Carbonic anhydrase 1 and 5 nM on Carbonic anhydrase 4.

For `NS(=O)(=O)c1ccc(NC(=O)CN(CCN(CCN(CC(=O)O)CC(=O)O)CC(=O)O)CC(=O)O)c(Br)c1`, the values for the Ki at Carbonic anhydrase 1 and on Carbonic anhydrase 4 were 96 nM and 27 nM, respectively.

Regarding `Nc1ccc(S(N)(=O)=O)cc1` [SULFANILAMIDE], the Ki on Carbonic anhydrase 4 worked out at 3000 nM.

Consider `Cn1nc(S(N)(=O)=O)s/c1=N\C(=O)CN(CCN(CCN(CC(=O)O)CC(=O)/N=c1/sc(S(N)(=O)=O)nn1C)CC(=O)O)CC(=O)O` [listing 2 of 2 here], for which the Ki on Carbonic anhydrase 1 was determined as 43 nM; on Carbonic anhydrase 4, 5 nM.

For `NS(=O)(=O)c1cc(S(N)(=O)=O)c(NC(=O)CN(CCN(CCN(CC(=O)O)CC(=O)O)CC(=O)O)CC(=O)O)cc1Cl`, the inhibition constant Ki on Carbonic anhydrase 1 turned out to be 87 nM; at Carbonic anhydrase 4 it was 52 nM.

For `NS(=O)(=O)c1ccc(NC(=O)CN(CCN(CCN(CC(=O)O)CC(=O)Nc2ccc(S(N)(=O)=O)cc2F)CC(=O)O)CC(=O)O)c(F)c1`, the values for the inhibition constant (Ki) at Carbonic anhydrase 1 and at Carbonic anhydrase 4 were 135 nM and 18 nM, respectively.

As to `NS(=O)(=O)c1ccc(CCOC(=O)CN(CCN(CCN(CC(=O)O)CC(=O)OCCc2ccc(S(N)(=O)=O)cc2)CC(=O)O)CC(=O)O)cc1`, the inhibition constant Ki on Carbonic anhydrase 1 worked out at 290 nM; at Carbonic anhydrase 4 it was 115 nM.

`Nc1ccc(S(N)(=O)=O)cc1F` returned an inhibition constant (Ki) on Carbonic anhydrase 4 of 180 nM.

Regarding `Cn1nc(S(N)(=O)=O)s/c1=N/C(=O)CN(CCN(CCN(CC(=O)O)CC(=O)O)CC(=O)O)CC(=O)O`, the inhibition constant Ki is 62 nM at Carbonic anhydrase 1 and 19 nM at Carbonic anhydrase 4.

On Carbonic anhydrase 4, `NS(=O)(=O)c1ccc(CNC(=O)CN(CCN(CCN(CC(=O)O)CC(=O)NCc2ccc(S(N)(=O)=O)cc2)CC(=O)O)CC(=O)O)cc1` [listing 1 of 2 here] had an inhibition constant (Ki) of 37 nM.

With `NS(=O)(=O)c1cc(S(N)(=O)=O)c(NC(=O)CN(CCN(CCN(CC(=O)O)CC(=O)Nc2c(S(N)(=O)=O)cc(S(N)(=O)=O)c(Cl)c2Cl)CC(=O)O)CC(=O)O)c(Cl)c1Cl`, the Ki at Carbonic anhydrase 1 stood at 43 nM; at Carbonic anhydrase 4, 25 nM.

As for `NS(=O)(=O)c1cc(S(N)(=O)=O)c(NC(=O)CN(CCN(CCN(CC(=O)O)CC(=O)O)CC(=O)O)CC(=O)O)c(Cl)c1Cl`, the Ki on Carbonic anhydrase 1 is 58 nM; at Carbonic anhydrase 4 it was 36 nM.

For `NS(=O)(=O)c1ccc(NC(=O)CN(CCN(CCN(CC(=O)O)CC(=O)O)CC(=O)O)CC(=O)O)c(I)c1`, the inhibition constant Ki at Carbonic anhydrase 1 came out at 79 nM; at Carbonic anhydrase 4 it was 29 nM.

As to `NS(=O)(=O)c1ccc(CNC(=O)CN(CCN(CCN(CC(=O)O)CC(=O)NCc2ccc(S(N)(=O)=O)cc2)CC(=O)O)CC(=O)O)cc1` [listing 2 of 2 here], the Ki at Carbonic anhydrase 4 is 21 nM.

In the case of `NS(=O)(=O)c1nc2ccc(NC(=O)CN(CCN(CCN(CC(=O)O)CC(=O)Nc3ccc4nc(S(N)(=O)=O)sc4c3)CC(=O)O)CC(=O)O)cc2s1`, the inhibitory constant (Ki) at Carbonic anhydrase 1 stood at 25 nM; at Carbonic anhydrase 4, 6 nM.

As for `NS(=O)(=O)c1ccc(NC(=O)CN(CCN(CCN(CC(=O)O)CC(=O)Nc2ccc(S(N)(=O)=O)cc2I)CC(=O)O)CC(=O)O)c(I)c1`, the inhibition constant Ki turned out to be 70 nM on Carbonic anhydrase 1 and 24 nM at Carbonic anhydrase 4.

The molecule `NS(=O)(=O)c1nc2ccc(OCCO)cc2s1` yielded a Ki on Carbonic anhydrase 4 of 15 nM.

`Nc1ccc(S(N)(=O)=O)cc1Br` came in with a Ki at Carbonic anhydrase 4 of 66 nM.

Regarding `NS(=O)(=O)c1ccc(CCOC(=O)CN(CCN(CCN(CC(=O)O)CC(=O)O)CC(=O)O)CC(=O)O)cc1`, the Ki on Carbonic anhydrase 1 was 360 nM; on Carbonic anhydrase 4, 190 nM.

On to `NS(=O)(=O)c1ccc(NNC(=O)CN(CCN(CCN(CC(=O)O)CC(=O)O)CC(=O)O)CC(=O)O)cc1`, for which the figures for the Ki on Carbonic anhydrase 1 and on Carbonic anhydrase 4 were 12000 nM and 630 nM, respectively.

For the molecule `NNc1ccc(S(N)(=O)=O)cc1`, the affinity on Carbonic anhydrase 4, expressed as Ki, was 3200 nM.

In turn, `Nc1c(S(N)(=O)=O)cc(S(N)(=O)=O)c(Cl)c1Cl` came in with an inhibition constant Ki at Carbonic anhydrase 4 of 175 nM.

Turning to `NS(=O)(=O)c1ccc(CCNC(=O)CN(CCN(CCN(CC(=O)O)CC(=O)O)CC(=O)O)CC(=O)O)cc1`, the Ki at Carbonic anhydrase 1 came to 290 nM; on Carbonic anhydrase 4, 36 nM.

As to `NS(=O)(=O)c1ccccc1NC(=O)CN(CCN(CCN(CC(=O)O)CC(=O)Nc1ccccc1S(N)(=O)=O)CC(=O)O)CC(=O)O`, the Ki at Carbonic anhydrase 1 came to 5400 nM; on Carbonic anhydrase 4, 330 nM.

For the molecule `NS(=O)(=O)c1nc2ccc(NC(=O)CN(CCN(CCN(CC(=O)O)CC(=O)O)CC(=O)O)CC(=O)O)cc2s1`, the inhibitory constant (Ki) at Carbonic anhydrase 1 came to 36 nM; at Carbonic anhydrase 4 it was 9 nM.

The molecule `NS(=O)(=O)c1ccc(NC(=O)CN(CCN(CCN(CC(=O)O)CC(=O)Nc2ccc(S(N)(=O)=O)cc2)CC(=O)O)CC(=O)O)cc1` yielded an inhibitory constant (Ki) at Carbonic anhydrase 4 of 100 nM.

Regarding `NS(=O)(=O)c1cccc(NC(=O)CN(CCN(CCN(CC(=O)O)CC(=O)Nc2cccc(S(N)(=O)=O)c2)CC(=O)O)CC(=O)O)c1`, the Ki on Carbonic anhydrase 4 is 425 nM.

Regarding `NS(=O)(=O)c1ccc(CCNC(=O)CN(CCN(CCN(CC(=O)O)CC(=O)NCCc2ccc(S(N)(=O)=O)cc2)CC(=O)O)CC(=O)O)cc1` [listing 2 of 2 here], affinity on Carbonic anhydrase 4 was put at a Ki of 25 nM.
